Measurements from ChEMBL document CHEMBL1127193, “High-purity porcine pancreatic lipase: novel effects in catalyzing hydrolysis of esters derived from bicyclo[3.2.0]hept-2-EN-6-OLS” (Bioorg Med Chem Lett, 1993).

Tests used:
[1] = molecular target: T1, Pancreatic triacylglycerol lipase (Homo sapiens) (UniProt P16233); assay: Tested for hydrolysis with 1.0 ug/mL of PPL (porcine pancreatic lipase) at the compound dose of 0.2 g; details: Sus scrofa; target entry is the homologue from another species
T1 sequence (whole entry): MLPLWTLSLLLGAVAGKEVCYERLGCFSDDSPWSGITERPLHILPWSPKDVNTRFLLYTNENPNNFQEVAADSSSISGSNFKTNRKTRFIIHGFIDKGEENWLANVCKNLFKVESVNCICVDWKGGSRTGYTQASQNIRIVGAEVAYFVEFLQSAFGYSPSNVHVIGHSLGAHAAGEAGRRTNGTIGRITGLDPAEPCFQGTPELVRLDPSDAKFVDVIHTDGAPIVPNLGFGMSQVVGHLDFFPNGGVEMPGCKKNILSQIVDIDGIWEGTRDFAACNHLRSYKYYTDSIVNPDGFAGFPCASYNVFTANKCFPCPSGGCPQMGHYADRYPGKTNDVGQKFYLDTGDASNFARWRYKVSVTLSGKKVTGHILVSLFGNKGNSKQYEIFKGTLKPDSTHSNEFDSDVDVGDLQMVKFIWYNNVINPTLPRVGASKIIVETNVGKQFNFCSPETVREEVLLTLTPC

[2] = molecular target: T1, Pancreatic triacylglycerol lipase (Homo sapiens); assay: Tested for hydrolysis with 1.0 ug/mL of PPL (porcine pancreatic lipase), 2.2 ug/mL of colipase and 4 mM of sodium taurodeoxycholatet (NaTDC) at the compound dose of 0.2 g; details: Sus scrofa; target entry is the homologue from another species
[3] = molecular target: T1, Pancreatic triacylglycerol lipase (Homo sapiens); assay: Tested for hydrolysis with 200 ug/mL of PPL (porcine pancreatic lipase) and sodium taurodeoxycholatet (NaTDC) at the compound dose of 0.2 g; details: Sus scrofa; target entry is the homologue from another species
[4] = molecular target: T1, Pancreatic triacylglycerol lipase (Homo sapiens); assay: Tested for hydrolysis with 20 ug/mL of PPL (porcine pancreatic lipase) and sodium taurodeoxycholatet (NaTDC) at the compound dose of 0.2 g; details: Sus scrofa; target entry is the homologue from another species
[5] = molecular target: T1, Pancreatic triacylglycerol lipase (Homo sapiens); assay: Tested for hydrolysis with 0.2 ug/mL of PPL (porcine pancreatic lipase) at the compound dose of 0.2 g; details: Sus scrofa; target entry is the homologue from another species
[6] = molecular target: T1, Pancreatic triacylglycerol lipase (Homo sapiens); assay: Tested for hydrolysis with 0.5 ug/mL of PPL (porcine pancreatic lipase), 1.5 ug/mL of colipase and 4 mM of sodium taurodeoxycholatet (NaTDC) at the compound dose of 0.2 g; details: Sus scrofa; target entry is the homologue from another species
[7] = molecular target: T2, Pancreatic triacylglycerol lipase (Homo sapiens, UniProt P16233); assay: Tested for hydrolysis with 0.2 ug/mL of PPL (porcine pancreatic lipase) at a compound dose of 0.2 g; design: species or system Sus scrofa; details: target entry is the homologue from another species
T2 sequence (P16233 whole entry): T1 sequence (whole entry)

[8] = molecular target: T2, Pancreatic triacylglycerol lipase; assay: Tested for hydrolysis with 0.2 ug/mL of PPL (porcine pancreatic lipase), 1.5 ug/mL of colipase and 4 mM sodium taurodeoxycholatet (NaTDC) at a compound concentration of 0.2 g; design: species or system Sus scrofa; details: target entry is the homologue from another species
[9] = molecular target: T1, Pancreatic triacylglycerol lipase (Homo sapiens); details: Sus scrofa
[10] = molecular target: T1, Pancreatic triacylglycerol lipase (Homo sapiens); details: Sus scrofa; remark: listed apart in the source
[11] = molecular target: T1, Pancreatic triacylglycerol lipase (Homo sapiens); assay: Tested for hydrolysis with 80 ug/mL of PPL (porcine pancreatic lipase) at the compound dose of 0.1 g; details: Sus scrofa; target entry is the homologue from another species

With CCCC(=O)O[C@@H]1C[C@@H]2C=CC[C@@H]21.CCCC(=O)O[C@@H]1C[C@H]2C=CC[C@@H]21 the k cat [1] was 420 s⁻¹ and the k cat [2] was 400 s⁻¹.
In the case of CCCC(=O)O[C@H]1C[C@@H]2C=CC[C@H]12, the k cat [3] is reported as under 5 s⁻¹ and the k cat [4] is reported as under 4 s⁻¹.
CCCC(=O)O[C@@H]1C[C@@H]2C=CC[C@@H]21 showed a k cat [5] of 3870 s⁻¹ and a k cat [6] of 3560 s⁻¹.
CCCC(=O)OCC(COC(=O)CCC)OC(=O)CCC [TRIBUTYRIN] showed a kcat [7] of 1100 s⁻¹, a kcat [8] of under 1 s⁻¹ and a k cat [9] of 4900 s⁻¹. It also gave a k cat [10] of 5100 s⁻¹.
For CC(=O)O[C@@H]1C[C@@H]2C=CC[C@@H]21, the k cat [11] was under 9 s⁻¹.
